The values that follow come from patent publication US20170071990A1 (Pizeta Group Srl, priority 2014, published 2017).

The test system of series [1] is Lactobacillus crispatus. Particulars: L. crispatus single culture, 24 hours at 37° C., 5% CO2, 0.625% boric acid; MRS without boric acid 1.19 × 10^7.
Series [2] has as its system Lactobacillus gasseri. The conditions noted are these: L. gasseri single culture, 24 hours at 37° C., 5% CO2, 0.625% boric acid; MRS without boric acid 7.28 × 10^6.
Series [3] has as its system Lactobacillus jensenii. Particulars: L. jensenii single culture, 24 hours at 37° C., 5% CO2, 0.625% boric acid; MRS without boric acid 7.63 × 10^6.
Series [4] has as its system Lactobacillus rhamnosus. The conditions noted are these: L. rhamnosus single culture, 24 hours at 37° C., 5% CO2, 0.625% boric acid; MRS without boric acid 7.45 × 10^6.
Series [5] relates to mixture of four lactobacilli. Particulars: mix of four lactobacilli, 24 hours at 37° C., 5% CO2, 0.625% boric acid; MRS without boric acid 7.63 × 10^6.
For series [6], the system named is lactobacilli tested, either alone or in combination. The conditions noted are these: 0.625% boric acid.
Series [7] concerns Gardnerella vaginalis. Particulars: summary statement of the description.
For series [8], the system named is Candida albicans. Particulars: summary statement of the description.
The conditions of series [9]: vaginal suppositories 600 mg/ovule, throughout the duration of the treatment; cited from earlier work.
Series [10] has as its system Candida albicans. The conditions noted are these: cited from earlier work.
Setting [11] is: low concentrations, non-therapeutic doses, first 24 hours.

Consider `OB(O)O` [boric acid], for which the “lactobacilli culture count, MRS with boric acid” value in series [1] is recorded as 6.29 × 10^6; in [2] it was 2.37 × 10^6; in [3], 7.47 × 10^6; in series [4], 3.17 × 10^6; in [5] it was 7.40 × 10^6. Moreover, the “inhibitory effect on the growth of the lactobacilli” value in series [6] is listed as “no inhibitory effect”. Besides, the “activity against Gardnerella vaginalis” value in series [7] is listed as “poor activity”. In addition, the “activity against Candida albicans” value in [8] was “good activity”. In [9], the “circulation levels of boric acid” value is reported as “under 1 μg/ml”. The “pH at which the substance completely inhibits the growth of Candida albicans” value in [10] (in vitro tests) is given as 5-5.9. Also, in series [10] (setting [11]), the cellular ergosterol entry is “decrease”. Further, in [10] (setting [11]), the “inhibition of the micro-organisms growth, planktonic and biofilm form” value is “moderate inhibition”.
